Laboratory results published in US4087432A, “1H-imidazo(4,5-b)pyridine compounds” (Eli Lilly and Company, priority 1975, dated 1978).

Tests used:
Soybean [1] = test: Postemergent injury rating, soybean; format: in vivo
Description: (§1) Various of the compounds to be employed as active agent in accordance with the present invention were evaluated for preemergent application to various species of plants. In this evaluation, a soil was prepared consisting of one part masonry sand and one part shredded top soil blended together in a cement mixer. One gallon of this soil was placed in a 25 × 35 cm. galvanized flat and was patted down with a bench brush until level. A three-row marker was used to make 21/2 cm. deep furrows in approximately two-fifths of the flat. Crop seeds consisting of four kernels of corn, five cotton seeds and five soybean seeds were placed in these furrows. A four-row template was then placed on the remaining soil and the indicated approximate numbers of each of the following seeds were planted, one species to each section: foxtail (millet), 80-100 seeds; velvetleaf (40-50 seeds); rough pigweed (150-250 seeds); and large crabgrass (100-150 seeds).
(§2) Sufficient soil was added to cover the entire flat. Thus, the weed seeds were covered to a depth of about 6 mm. and the crop seeds were covered to a depth of about 3 cm.
(§3) In assaying the effect of the composition as preemergent herbicides, a flat prepared as above, taken either on the day of planting or on the next day, was placed in a chamber equipped with a turntable and an air exhaust. The herbicidal composition, either a spray-type emulsion or a wettable powder, was applied to the flat with a modified DeVilbiss atomizer hooked to an air source. Twelve and one-half milliliters of the composition under test were applied to each flat either on the day of planting or the succeeding day. Injury ratings and observations as to type of injury were made eleven to twelve days after treatment. The injury rating scale used was as follows:
(§4) 4--death When more than one determination was carried out at a given rate, an average value was calculated for the injury rating. Each compound evaluated was formulated as a spray by one of the following procedures. In one method the particular compound was wetted by grinding in a mortar with one part of polyoxyethylene sorbitan monolaurate. Five hundred parts of water were added slowly to the resultant creamy paste to give an aqueous dispersion with a surfactant concentration of 0.2 percent. This dispersion was entirely satisfactory for spray application. In a second procedure the compound was dissolved in one volume of acetone, and the acetone solution was diluted with nineteen volumes of water containing 0.1 percent of polyoxyethylene sorbitan monolaurate.
(§5) Representative compounds of the present invention were evaluated for postemergent application to plants including corn and several weed species. The evaluation was carried out in accordance with the procedures of Examples 49-52 except that the test solutions were applied about 9-12 days after the preparation and seeding of the flats.

Foxtail [2] = test: Preemergent injury rating, foxtail; format: in vivo, foxtail (millet); parameters: key: injury rating scale on which 4 = death
Description: as §1, §2, §3, §4
(§6) In the following table setting forth the results of the evaluation, column 1 gives the name of the compound under test; column 2, the rate in pounds per acre at which the compound was applied to the test flat; and the remaining columns, the injury to the particular plant seeds or seedlings as measured by the foregoing scale.

Crabgrass [3] = test: Preemergent injury rating, crabgrass; format: in vivo, large crabgrass; parameters: key: injury rating scale on which 4 = death
Description: as §1, §2, §3, §4, §6

Crabgrass [4] = test: Postemergent injury rating, crabgrass; format: in vivo, large crabgrass; parameters: key: injury rating scale, 4 = death
Description: as §1, §2, §3, §4, §5

Pigweed [5] = test: Postemergent injury rating, pigweed; format: in vivo, rough pigweed; parameters: key: injury rating scale, 4 = death
Description: as §1, §2, §3, §4, §5

Corn [6] = test: Postemergent injury rating, corn; format: in vivo; parameters: key: injury rating scale, 4 = death
Description: as §1, §2, §3, §4, §5

Velvet Leaf [7] = test: Postemergent injury rating, velvetleaf; format: in vivo
Description: as §1, §2, §3, §4, §5

Soybean [8] = test: Preemergent injury rating, soybean; format: in vivo; parameters: key: injury rating scale on which 4 = death
Description: as §1, §2, §3, §4, §6

Corn [9] = test: Preemergent injury rating, corn; format: in vivo; parameters: key: injury rating scale on which 4 = death
Description: as §1, §2, §3, §4, §6

Cotton [10] = test: Postemergent injury rating, cotton; format: in vivo
Description: as §1, §2, §3, §4, §5

Foxtail [11] = test: Postemergent injury rating, foxtail; format: in vivo, foxtail (millet); parameters: key: injury rating scale, 4 = death
Description: as §1, §2, §3, §4, §5

Cotton [12] = test: Preemergent injury rating, cotton; format: in vivo; parameters: key: injury rating scale on which 4 = death
Description: as §1, §2, §3, §4, §6

Pigweed [13] = test: Preemergent injury rating, pigweed; format: in vivo, rough pigweed; parameters: key: injury rating scale on which 4 = death; settings: 2 lbs/acre
Description: as §1, §2, §3, §4, §6

Velvet Leaf [14] = test: Preemergent injury rating, velvetleaf; format: in vivo; parameters: key: injury rating scale on which 4 = death; settings: 2 lbs/acre
Description: as §1, §2, §3, §4, §6

On1c(C(F)(F)F)nc2ncc(C(F)(F)F)cc21 [1-hydroxy-2,6-bis(trifluoromethyl)-1H-imidazo(4,5-b)pyridine] was tested, and the “Injury Rating, Soybean” value (Soybean [1]; 1 lbs/acre) was 4, the “Injury Rating, Soybean” value (Soybean [1]; 2 lbs/acre) was 4 and the “Injury Rating, Soybean” value (Soybean [1]; 4 lbs/acre) was 4. The “Injury Rating, Soybean” value (Soybean [1]; 8 lbs/acre) was 4, the “Injury Rating, Foxtail” value (Foxtail [2]; 8 lbs/acre) was 4 and the “Injury Rating, Crabgrass” value (Crabgrass [3]; 8 lbs/acre) was 4. The “Injury Rating, Crabgrass” value (Crabgrass [4]; 1 lbs/acre) was 4, the “Injury Rating, Crabgrass” value (Crabgrass [4]; 2 lbs/acre) was 4 and the “Injury Rating, Crabgrass” value (Crabgrass [4]; 4 lbs/acre) was 4. For the same molecule, the “Injury Rating, Crabgrass” value (Crabgrass [4]; 8 lbs/acre) was 4, the “Injury Rating, Pigweed” value (Pigweed [5]; 1 lbs/acre) was 4 and the “Injury Rating, Pigweed” value (Pigweed [5]; 2 lbs/acre) was 4. For the same molecule, the “Injury Rating, Pigweed” value (Pigweed [5]; 4 lbs/acre) was 4, the “Injury Rating, Pigweed” value (Pigweed [5]; 8 lbs/acre) was 4 and the “Injury Rating, Corn” value (Corn [6]; 1 lbs/acre) was 1. For the same molecule, the “Injury Rating, Corn” value (Corn [6]; 2 lbs/acre) was 4, the “Injury Rating, Corn” value (Corn [6]; 4 lbs/acre) was 4 and the “Injury Rating, Corn” value (Corn [6]; 8 lbs/acre) was 4. The “Injury Rating, Velvet Leaf” value (Velvet Leaf [7]; 1 lbs/acre) was 4, the “Injury Rating, Velvet Leaf” value (Velvet Leaf [7]; 2 lbs/acre) was 4 and the “Injury Rating, Velvet Leaf” value (Velvet Leaf [7]; 4 lbs/acre) was 4. For the same molecule, the “Injury Rating, Velvet Leaf” value (Velvet Leaf [7]; 8 lbs/acre) was 4, the “Injury Rating, Soybean” value (Soybean [8]; 8 lbs/acre) was 3 and the “Injury Rating, Corn” value (Corn [9]; 8 lbs/acre) was 3. The “Injury Rating, Cotton” value (Cotton [10]; 1 lbs/acre) was 4, the “Injury Rating, Cotton” value (Cotton [10]; 2 lbs/acre) was 4 and the “Injury Rating, Cotton” value (Cotton [10]; 4 lbs/acre) was 4. The “Injury Rating, Cotton” value (Cotton [10]; 8 lbs/acre) was 4, the “Injury Rating, Foxtail” value (Foxtail [11]; 1 lbs/acre) was 4 and the “Injury Rating, Foxtail” value (Foxtail [11]; 2 lbs/acre) was 4. For the same molecule, the “Injury Rating, Foxtail” value (Foxtail [11]; 4 lbs/acre) was 4, the “Injury Rating, Foxtail” value (Foxtail [11]; 8 lbs/acre) was 4 and the “Injury Rating, Cotton” value (Cotton [12]; 8 lbs/acre) was 4.

For CS(=O)(=O)c1cnc2nc(C(F)(F)F)n(O)c2c1 [6-(methylsulfonyl)-1-hydroxy-2-(trifluoromethyl)-1H-imidazo(4,5-b)pyridine], the “Injury Rating, Soybean” value (Soybean [1]; 1 lbs/acre) was 3, the “Injury Rating, Soybean” value (Soybean [1]; 2 lbs/acre) was 4 and the “Injury Rating, Foxtail” value (Foxtail [2]; 2 lbs/acre) was 2. For the same molecule, the “Injury Rating, Pigweed” value (Pigweed [13]) was 3, the “Injury Rating, Crabgrass” value (Crabgrass [3]; 2 lbs/acre) was 2 and the “Injury Rating, Crabgrass” value (Crabgrass [4]; 1 lbs/acre) was 2. For the same molecule, the “Injury Rating, Crabgrass” value (Crabgrass [4]; 2 lbs/acre) was 2, the “Injury Rating, Pigweed” value (Pigweed [5]; 1 lbs/acre) was 3 and the “Injury Rating, Pigweed” value (Pigweed [5]; 2 lbs/acre) was 4. For the same molecule, the “Injury Rating, Corn” value (Corn [6]; 1 lbs/acre) was 1, the “Injury Rating, Corn” value (Corn [6]; 2 lbs/acre) was 2 and the “Injury Rating, Soybean” value (Soybean [8]; 2 lbs/acre) was 2. The “Injury Rating, Corn” value (Corn [9]; 2 lbs/acre) was 0, the “Injury Rating, Velvet Leaf” value (Velvet Leaf [14]) was 2 and the “Injury Rating, Cotton” value (Cotton [10]; 1 lbs/acre) was 3. The “Injury Rating, Cotton” value (Cotton [10]; 2 lbs/acre) was 4, the “Injury Rating, Foxtail” value (Foxtail [11]; 1 lbs/acre) was 4 and the “Injury Rating, Foxtail” value (Foxtail [11]; 2 lbs/acre) was 4. The “Injury Rating, Cotton” value (Cotton [12]; 2 lbs/acre) was 0.
